Like-named read-outs stand apart in the source and are kept apart here.
Target: human APJ receptor (Homo sapiens (Human), UniProt P35414)
Assay: Intracellular cAMP accumulation assay (APJ hcAMP, HTRF)
Format: cell-based
Conditions: human APJ, read-out: Human APJ cAMP EC50 Potency range
Summary of the method: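 HEK293 cells stably expressing human APJ, 5,000 per well, incubated 30 min at rt with compound, […] and 2 μM forskolin. cAMP measured by HTRF against a cAMP standard curve as inhibition of forskolin-driven production. EC50 from variable-slope sigmoidal fit.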

[1] = intracellular cAMP accumulation

Chain of human APJ receptor (P35414 whole entry): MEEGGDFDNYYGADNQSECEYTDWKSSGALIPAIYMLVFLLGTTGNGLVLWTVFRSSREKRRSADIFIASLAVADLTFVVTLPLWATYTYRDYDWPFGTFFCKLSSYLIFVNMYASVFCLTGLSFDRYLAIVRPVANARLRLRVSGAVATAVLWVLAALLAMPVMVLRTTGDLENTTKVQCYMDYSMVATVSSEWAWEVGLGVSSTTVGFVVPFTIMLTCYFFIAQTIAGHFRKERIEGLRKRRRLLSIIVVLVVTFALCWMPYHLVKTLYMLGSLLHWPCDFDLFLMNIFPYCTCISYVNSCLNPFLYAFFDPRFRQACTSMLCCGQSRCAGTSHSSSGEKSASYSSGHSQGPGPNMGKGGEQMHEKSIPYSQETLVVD

Row | SMILES | EC50 [1] | EC50 (cAMP accumulation)
1 | CCCCc1nc(=O)c(S(=O)(=O)c2ccc(-c3ccncc3C)cc2)c(O)n1[C@H](C)c1ccc(OC)cc1 [Example 210, 2-butyl-6-hydroxy-1-[(1R)-1-(4-methoxyphenyl)ethyl]-5-[4-(3-methylpyridin-4-yl)benzenesulfonyl]-1,4-dihydropyrimidin-4-one] | 0.01 to 10 nM | –
2 | CCCCc1nc(=O)c(S(=O)(=O)c2ccc(-c3ccnc(F)c3C)cc2)c(O)n1[C@@H](CC)c1ccc2c(c1)OCO2 [Example 211, 1-[(1S)-1-(2H-1,3-benzodioxol-5-yl)propyl]-2-butyl-5-[4-(2-fluoro-3-methylpyridin-4-yl)benzenesulfonyl]-6-hydroxy-1,4-dihydropyrimidin-4-one] | 0.01 to 10 nM | –
3 | CCCCc1nc(=O)c(S(=O)(=O)c2ccc(-c3cccnc3C)cc2)c(O)n1[C@@H](CC)c1cccc(F)c1 [Example 213, 2-butyl-1-[(1S)-1-(3-fluorophenyl)propyl]-6-hydroxy-5-[4-(2-methylpyridin-3-yl)benzenesulfonyl]-1,4-dihydropyrimidin-4-one] | 0.01 to 10 nM | –
4 | CCCCc1nc(=O)c(S(=O)(=O)c2ccc(-c3cncc(F)c3)cc2)c(O)n1[C@@H](CC)c1cccc(F)c1 [Example 214, 2-butyl-1-[(1S)-1-(3-fluorophenyl)propyl]-5-[4-(5-fluoropyridin-3-yl)benzenesulfonyl]-6-hydroxy-1,4-dihydropyrimidin-4-one] | – | 0.01 to 10 nM
5 | CCCCc1nc(=O)c(S(=O)(=O)c2ccc(-c3cccnc3C)cc2)c(O)n1[C@@H](CC)c1ccc2c(c1)OCO2 [Example 215, 1-[(1S)-1-(2H-1,3-benzodioxol-5-yl)propyl]-2-butyl-6-hydroxy-5-[4-(2-methylpyridin-3-yl)benzenesulfonyl]-1,4-dihydropyrimidin-4-one] | – | 0.01 to 10 nM
6 | CCCCc1nc(O)c(S(=O)(=O)c2ccc(Br)cc2)c(=O)n1[C@@H](CC)c1cccc(F)c1 [Example 216, 5-(4-bromobenzenesulfonyl)-2-butyl-3-[(1S)-1-(3-fluorophenyl)propyl]-6-hydroxy-3,4-dihydropyrimidin-4-one] | – | 0.01 to 10 nM
7 | CCCCc1nc(=O)c(S(=O)(=O)c2ccc(-c3ccnc(F)c3C)cc2)c(O)n1[C@@H](CC)c1cccc(F)c1 [Example 217, 2-butyl-5-[4-(2-fluoro-3-methylpyridin-4-yl)benzenesulfonyl]-1-[(1S)-1-(3-fluorophenyl)propyl]-6-hydroxy-1,4-dihydropyrimidin-4-one] | – | 0.01 to 10 nM
8 | CCCCc1nc(=O)c(S(=O)(=O)c2ccc(-c3cncc(F)c3)cc2)c(O)n1[C@@H](CC)c1ccc2c(c1)OCO2 [Example 218, 1-[(1S)-1-(2H-1,3-benzodioxol-5-yl)propyl]-2-butyl-5-[4-(5-fluoropyridin-3-yl)benzenesulfonyl]-6-hydroxy-1,4-dihydropyrimidin-4-one] | – | 0.01 to 10 nM
9 | CCCCc1nc(O)c(S(=O)(=O)c2ccc(Br)cc2)c(=O)n1[C@@H](CC)c1ccc2c(c1)OCO2 [Example 219, 3-[(1S)-1-(2H-1,3-benzodioxol-5-yl)propyl]-5-(4-bromobenzenesulfonyl)-2-butyl-6-hydroxy-3,4-dihydropyrimidin-4-one] | – | 0.01 to 10 nM
10 | CCCCc1nc(=O)c(S(=O)(=O)c2ccc(-c3ccc(F)nc3C)cc2)c(O)n1[C@@H](CC)c1ccc2c(c1)OCO2 [Example 220, 1-[(1S)-1-(2H-1,3-benzodioxol-5-yl)propyl]-2-butyl-5-[4-(6-fluoro-2-methylpyridin-3-yl)benzenesulfonyl]-6-hydroxy-1,4-dihydropyrimidin-4-one] | – | 0.01 to 10 nM
11 | CCCCc1nc(=O)c(S(=O)(=O)c2ccc(-c3cccnc3C)cc2)c(O)n1[C@H]1CCCc2ccccc21 [Example 221, 2-butyl-6-hydroxy-5-[4-(2-methylpyridin-3-yl)benzenesulfonyl]-1-[(1S)-1,2,3,4-tetrahydronaphthalen-1-yl]-1,4-dihydropyrimidin-4-one] | – | 0.01 to 10 nM
12 | CCCCc1nc(=O)c(S(=O)(=O)c2ccc(-c3cncc(F)c3)cc2)c(O)n1[C@H]1CCCc2ccccc21 [Example 222, 2-butyl-5-[4-(5-fluoropyridin-3-yl)benzenesulfonyl]-6-hydroxy-1-[(1S)-1,2,3,4-tetrahydronaphthalen-1-yl]-1,4 dihydropyrimidin-4-one] | – | 0.01 to 10 nM
13 | CCCCc1nc(=O)c(S(=O)(=O)c2ccc(-c3ccncc3C)cc2)c(O)n1[C@H]1CCCc2ccccc21 [Example 224, 2-butyl-6-hydroxy-5-[4-(3-methylpyridin-4-yl)benzenesulfonyl]-1-[(1S)-1,2,3,4-tetrahydronaphthalen-1-yl]-1,4-dihydropyrimidin-4-one] | – | 0.01 to 10 nM
14 | CCCCc1nc(=O)c(S(=O)(=O)c2ccc(-c3cncc(F)c3)cc2)c(O)n1[C@@H](CC)c1cccc(C#N)c1 [Example 225, 3-[(1S)-1-{2-butyl-5-[4-(5-fluoropyridin-3-yl)benzenesulfonyl]-6-hydroxy-4-oxo-1,4-dihydropyrimidin-1-yl}propyl]benzonitrile] | – | 0.01 to 10 nM
15 | CCCCc1nc(=O)c(S(=O)(=O)c2ccc(-c3ccc(F)nc3C)cc2)c(O)n1[C@@H](CC)c1cccc(C#N)c1 [Example 226, 3-[(1S)-1-{2-butyl-5-[4-(6-fluoro-2-methylpyridin-3-yl)benzenesulfonyl]-6-hydroxy-4-oxo-1,4-dihydropyrimidin-1-yl}propyl]benzonitrile] | – | 0.01 to 10 nM
16 | CCCCc1nc(=O)c(S(=O)(=O)c2ccc(-c3ccncc3C)cc2)c(O)n1[C@@H](CC)c1cccc(C#N)c1 [Example 229, 3-[(1S)-1-{2-butyl-6-hydroxy-5-[4-(3-methylpyridin-4-yl)benzenesulfonyl]-4-oxo-1,4-dihydropyrimidin-1-yl}propyl]benzonitrile] | – | 0.01 to 10 nM
17 | CCCCc1nc(=O)c(S(=O)(=O)c2ccc(-c3cccnc3C)cc2)c(O)n1[C@@H](C)c1ccccc1OC [Example 231, 2-butyl-6-hydroxy-1-[(1S)-1-(2-methoxyphenyl)ethyl]-5-[4-(2-methylpyridin-3-yl)benzenesulfonyl]-1,4-dihydropyrimidin-4-one] | – | 0.01 to 10 nM
18 | CCCCc1nc(=O)c(S(=O)(=O)c2ccc(-c3cncc(F)c3)cc2)c(O)n1[C@@H](C)c1ccccc1OC [Example 232, 2-butyl-5-[4-(5-fluoropyridin-3-yl)benzenesulfonyl]-6-hydroxy-1-[(1S)-1-(2-methoxyphenyl)ethyl]-1,4-dihydropyrimidin-4-one] | – | 0.01 to 10 nM
19 | CCCCc1nc(=O)c(S(=O)(=O)c2ccc(-c3ccc(F)nc3C)cc2)c(O)n1[C@@H](C)c1ccc(OC)cc1 [Example 233, 2-butyl-5-[4-(6-fluoro-2-methylpyridin-3-yl)benzenesulfonyl]-6-hydroxy-1-[(1S)-1-(4-methoxyphenyl)ethyl]-1,4-dihydropyrimidin-4-one] | – | 0.01 to 10 nM
20 | CCCCc1nc(=O)c(S(=O)(=O)c2ccc(-c3cccnc3C)cc2)c(O)n1[C@@H](CC)c1cccc(C#N)c1 [Example 234, 3-[(1S)-1-{2-butyl-6-hydroxy-5-[4-(2-methylpyridin-3-yl)benzenesulfonyl]-4-oxo-1,4-dihydropyrimidin-1-yl}propyl]benzonitrile] | – | 0.01 to 10 nM

Now from value to compound:

Row | EC50 [1] | EC50 (cAMP accumulation) | SMILES
21 | 0.01 to 10 nM | – | CC[C@@H](c1ccccc1)n1c(CCC(C)C)nc(=O)c(S(=O)(=O)c2ccc(-c3ccncc3C)cc2)c1O [Example 209, 6-hydroxy-2-(3-methylbutyl)-5-[4-(3-methylpyridin-4-yl)benzenesulfonyl]-1-[(1S)-1-phenylpropyl]-1,4-dihydropyrimidin-4-one]
22 | 0.01 to 10 nM | – | CCCCc1nc(=O)c(S(=O)(=O)c2ccc(-c3ccncc3C)cc2)c(O)n1[C@@H](CC)c1cccc(F)c1 [Example 212, 2-butyl-1-[(1S)-1-(3-fluorophenyl)propyl]-6-hydroxy-5-[4-(3-methylpyridin-4-yl)benzenesulfonyl]-1,4-dihydropyrimidin-4-one]
23 | – | 0.01 to 10 nM | CCCCc1nc(O)c(S(=O)(=O)c2ccc(Br)cc2)c(=O)n1[C@@H](CC)c1cccc(C#N)c1 [Example 223, 3-[(1S)-1-[5-(4-bromobenzenesulfonyl)-2-butyl-4-hydroxy-6-oxo-1,6-dihydropyrimidin-1-yl]propyl]benzonitrile]
24 | – | 0.01 to 10 nM | CCCCc1nc(=O)c(S(=O)(=O)c2ccc(-c3cccnc3C)cc2)c(O)n1[C@@H](C)c1ccc(OC)cc1 [Example 227]
25 | – | 0.01 to 10 nM | CCCCc1nc(=O)c(S(=O)(=O)c2ccc(-c3ccncc3C)cc2)c(O)n1[C@@H](C)c1ccccc1OC [Example 228, 2-butyl-6-hydroxy-1-[(1S)-1-(2-methoxyphenyl)ethyl]-5-[4-(3-methylpyridin-4-yl)benzenesulfonyl]-1,4-dihydropyrimidin-4-one]
26 | – | 0.01 to 10 nM | CCCCc1nc(=O)c(S(=O)(=O)c2ccc(-c3ccnc(F)c3C)cc2)c(O)n1[C@@H](CC)c1cccc(C#N)c1 [Example 230, 3-[(1S)-1-{2-butyl-5-[4-(2-fluoro-3-methylpyridin-4-yl)benzenesulfonyl]-6-hydroxy-4-oxo-1,4-dihydropyrimidin-1-yl}propyl]benzonitrile]
27 | – | 10 to 100 nM | CCCCc1nc(O)c(S(=O)(=O)c2ccc(Br)cc2)c(=O)n1[C@H]1CCCc2ccccc21 [Example 235, 5-(4-bromobenzenesulfonyl)-2-butyl-6-hydroxy-3-[(1S)-1,2,3,4-tetrahydronaphthalen-1-yl]-3,4-dihydropyrimidin-4-one]
28 | – | 0.01 to 10 nM | CCCCc1nc(=O)c(S(=O)(=O)c2ccc(-c3ccncc3C)cc2)c(O)n1[C@@H](C)c1ccc(OC)cc1 [Example 236, 2-butyl-6-hydroxy-1-[(1S)-1-(4-methoxyphenyl)ethyl]-5-[4-(3-methylpyridin-4-yl)benzenesulfonyl]-1,4-dihydropyrimidin-4-one]
29 | – | 0.01 to 10 nM | CCCCc1nc(=O)c(S(=O)(=O)c2ccc(-c3ccc(F)nc3C)cc2)c(O)n1[C@H]1CCCc2ccccc21 [Example 237, 2-butyl-5-[4-(6-fluoro-2-methylpyridin-3-yl)benzenesulfonyl]-6-hydroxy-1-[(1S)-1,2,3,4-tetrahydronaphthalen-1-yl]-1,4-dihydropyrimidin-4-one]

Source: patent publication US10508104B2, “6-hydroxy-5-(phenyl/heteroarylsulfonyl)pyrimidin-4(1H)-one as APJ agonists” (Bristol-Myers Squibb Company, priority 2016, dated 2019)
